Results on six molecules are retold here after patent US9096832B2, “Differentiation of human embryonic stem cells” (LifeScan, Inc., priority 2007, dated 2015).

For one assay, the system named is H9P44 cells. Briefly: Definitive endoderm on MEFs: growth factor combinations in low serum (FACS CXCR4, RT-PCR; Table V). The assay is classed as cell-based, human. The note with it: H9P44 on MEF, Day 3, normalized to Group 1 (control). The procedure:
H9P44 cells were plated onto 6 well plates previously coated with mitomycin treated mouse embryonic fibroblasts (MEF). Cells were grown until 70 to 80% confluency in ES cell medium consisting of DMEM/F12 (Invitrogen/GIBCO) supplemented with 20% knockout serum replacement, 100 nM MEM nonessential amino acids, 0.5 mM beta-mercaptoethanol, 2 mM L-glutamine (all from Invitrogen/GIBCO) and 8 ng/ml human basic fibroblast growth factor (bFGF) (R&D Systems).
Growth factors were added to increasing concentration of FBS in a stepwise manner as indicated in the following regimen: • Day 0: 0% FBS in DMEM/F12 • Day 1: 0.5% FBS in DMEM/F12 • Day 2: 2% FBS in DMEM/F12. • Day 3: Cells were harvested for FACS analysis and RT-PCR.
All growth factors were purchased from R&D Systems, MN. A detailed description and concentration of growth factors for each treatment group is shown below. • 1. Control—No growth factor added • 2. […] IL-4 (10 ng/ml) • 10. SDF1a (20 ng/ml) • 11. […] BMP2 (100 ng/ml)+BMP-4 (100 ng.ml)+BMP-6 (100 ng/ml)+BMP-7 (100 ng/ml) • 13.
Cells were harvested on Day 3 of DE protocol treatment. For analysis, an aliquot of treated cells was used for RNA preparation for RT-PCR and the rest of cells used for FACS analysis.
For RT-PCR analysis, cells were analyzed for expression of selected panel of definitive endoderm markers.

For assay [1], the system named is human embryonic stem cell line H9. The assay is described as follows: Formation of pancreatic endocrine cells with gamma-secretase inhibitor L-685,458 (PCR). The assay is classed as cell-based. Here is the method: After this time interval, the cells were then treated for six days with combinations of retinoic acid and FGF as outlined in Example 2, then the culture medium was removed and replaced with medium comprising DMEM/F12 with 2% FBS, containing the γ-secretase inhibitors L-685,458 at 10 μM for three days.
Final data were expressed relative to a calibrator sample.

The test system of assay [2] is H7P44 and H9P46 embryonic stem cells. Briefly: Definitive endoderm on […]: role of Wnt ligands (FACS CXCR4, real-time PCR). The assay is classed as cell-based, human. The note with it: low serum+AA+/-Wnt ligands, H7 and H9, five days. The procedure:
In some of the cultures 20 ng/ml Wnt-3a (Catalog#1324-WN-002, R&D Systems, MN), 20 ng/ml Wnt-5a (Catalog#654-WN-010, R&D Systems, MN), 25 ng/ml Wnt-7a (Catalog#3008-WN-025, R&D Systems, MN), or 25 ng/ml Wnt-5b (Catalog#3006-WN-025, R&D Systems, MN) was added throughout the five day treatment. FIG. 24 depicts phase contrast images of H9P46 definitive endoderm culture in the presence of high concentration of (a) AA or (b) AA+20 ng/ml Wnt-3a. FIG. 25 depicts the expression of CXCR4 by FACS at day 5 for H7P44, and H9P46 lines cultured on […]™ (1:30 dilution) and exposed to the DE protocol+Wnt-3a (FIG. 25, panels b and d) and −Wnt-3a (FIG. 25, panels a and c).

As to Group 9: IL-4 (10 ng/ml), in the assay with H9P44 cells, the CXCR4 relative expression is reported as 1.4, the Goosecoid relative expression turned out to be 0.9, the HNF-3B relative expression amounted to 0.89 and the Oct-4 relative expression came to 0.85. Moreover, in the assay on H9P44 cells, the SOX-2 relative expression is listed as 1.2 and the Sox17 relative expression came out at 1.

Regarding `CC(C)C[C@H](NC(=O)[C@H](Cc1ccccc1)C[C@@H](O)[C@H](Cc1ccccc1)NC(=O)OC(C)(C)C)C(=O)N[C@@H](Cc1ccccc1)C(N)=O` [L-685,458], in assay [1] (L-685,458 10 μM), the NeuroD1 expression entry is on record as “increased further”, the “expression of Hes-1” value was “decrease” and the “time of maximal inhibition of Hes-1 expression” value is given as “day three post treatment”. For the same molecule, in assay [1] (L-685,458 10 μM for three days), the “Ngn3 expression relative to activin A alone or retinoic acid with FGFs” value is listed as “approximately 50 fold” and the “increase of insulin expression” value is given as 70 fold.

B1: Wnt-7a: Wnt ligand, Catalog#3008-WN-025, R&D Systems (protein, UniProt O00755 32-349, looked up)
Protein Wnt-7a: LGASIICNKIPGLAPRQRAICQSRPDAIIVIGEGSQMGLDECQFQFRNGRWNCSALGERTVFGKELKVGSREAAFTYAIIAAGVAHAITAACTQGNLSDCGCDKEKQGQYHRDEGWKWGGCSADIRYGIGFAKVFVDAREIKQNARTLMNLHNNEAGRKILEENMKLECKCHGVSGSCTTKTCWTTLPQFRELGYVLKDKYNEAVHVEPVRASRNKRPTFLKIKKPLSYRKPMDTDLVYIEKSPNYCEEDPVTGSVGTQGRACNKTAPQASGCDLMCCGRGYNTHQYARVWQCNCKFHWCCYVKCNTCSERTEMYTCK
Turning to B1, the “expression of definitive endoderm markers (real-time PCR)” value (“expression … (real-time PCR)” for short) in assay [2] was “minimal impact”.

B2: Group 2: Activin A (100 ng/ml) (protein, UniProt P08476 311-426, looked up)
Inhibin beta A chain: GLECDGKVNICCKKQFFVSFKDIGWNDWIIAPSGYHANYCEGECPSHIAGTSGSSLSFHSTVINHYRMRGHSPFANLKSCCVPTKLRPMSMLYYDDGQNIIKKDIQNMIVEECGCS
Regarding B2, in the assay on H9P44 cells, the CXCR4 relative expression is 19.5, the Goosecoid relative expression is recorded as 2.8, the HNF-3B relative expression came to 0.64 and the Oct-4 relative expression amounted to 1.1. In the assay on H9P44 cells, the SOX-2 relative expression is given as 0.91 and the Sox17 relative expression was 45.

B3: Wnt-5b: Wnt ligand, Catalog#3006-WN-025, R&D Systems (protein, UniProt Q9H1J7 18-359, looked up)
Protein Wnt-5b: QLLTDANSWWSLALNPVQRPEMFIIGAQPVCSQLPGLSPGQRKLCQLYQEHMAYIGEGAKTGIKECQHQFRQRRWNCSTADNASVFGRVMQIGSRETAFTHAVSAAGVVNAISRACREGELSTCGCSRTARPKDLPRDWLWGGCGDNVEYGYRFAKEFVDAREREKNFAKGSEEQGRVLMNLQNNEAGRRAVYKMADVACKCHGVSGSCSLKTCWLQLAEFRKVGDRLKEKYDSAAAMRVTRKGRLELVNSRFTQPTPEDLVYVDPSPDYCLRNESTGSLGTQGRLCNKTSEGMDGCELMCCGRGYNQFKSVQVERCHCKFHWCCFVRCKKCTEIVDQYICK
Turning to B3, the “expression … (real-time PCR)” value in assay [2] is given as “minimal impact”.

B4: Wnt 5a: Wnt ligand, Catalog#654-WN-010, R&D Systems (protein, UniProt P22725 62-380, looked up)
Protein Wnt-5a: IIGAQPLCSQLAGLSQGQKKLCHLYQDHMQYIGEGAKTGIKECQYQFRHRRWNCSTVDNTSVFGRVMQIGSRETAFTYAVSAAGVVNAMSRACREGELSTCGCSRAARPKDLPRDWLWGGCGDNIDYGYRFAKEFVDARERERIHAKGSYESARILMNLHNNEAGRRTVYNLADVACKCHGVSGSCSLKTCWLQLADFRKVGDALKEKYDSAAAMRLNSRGKLVQVNSRFNSPTTQDLVYIDPSPDYCVRNESTGSLGTQGRLCNKTSEGMDGCELMCCGRGYDQFKTVQTERCHCKFHWCCYVKCKKCTEIVDQFVCK
As to B4, the “expression … (real-time PCR)” value in assay [2] is reported as “minimal impact”.
